Assay: siRNA stability in 50% FBS (gel electrophoresis)
Type: in vitro ADME, bovine
Protocol: siRNA-loading capacity of MSN^a was evaluated by the agarose gel retardation assay. siRNA-loaded MSNs (MSN^a/siRNA) complexes were prepared varying the MSN^a/siRNA weight ratio from 1/1 to 50/1. The complexes were loaded in 2% agarose gel and run in 0.5×TAE buffer at 80 V for 40 min. The gel was stained with ethidium bromide, and siRNA bands were detected at 302 nm using Azure C300 (Dublin, CA, USA). For stability testing, siRNA or NPs were challenged with 166 U/mL RNase for 15 min±8 mg/mL SDS for additional 2.5 h or 50% FBS for 1 h, both at 37° C., and analyzed by agarose gel electrophoresis. To quantify siRNA loaded in Nanosac (O/siRNA/pD), the NPs were dispersed in dilute HCl solution (pH 3) and incubated for 72 h. The samples were centrifuged at 16,000 rcf for 10 min, and the supernatant and pellet were separately analyzed by agarose gel electrophoresis.

siPD-L1: PD-L1 siRNA, sense 5′-CCCACAUAAAAAACAGUUGTT-3′ (SEQ ID NO: 1), antisense SEQ ID NO: 2 (antisense CAACUGUUUUUUAUGUGGGTT; chemistry not given here)
stability of siRNA in 50% FBS: completely degraded
